We go through three compounds from patent US6133292A, “Diaryl-5-alkyl-5-methyl-2-(5H)-furanones as selective cyclooxygenase-2-inhibitors” (Merck Frosst Canada & Co., priority 1998, dated 2000).

The structures appear in SMILES notation.

Series [1] is described as follows: Pharmacokinetics in rats (half-life). The following applies: rat, blood, read-out: T 1/2 in Rats (converted). It counts as in vivo, rat (male Sprague Dawley). From the text:
Per Os Pharmacokinetics in Rats--Procedure:
The animals are housed, fed and cared for according to the Guidelines of the Canadian Council on Animal Care. Male Sprague Dawley rats (325-375 g) are fasted overnight prior to each PO blood level study. The rats are placed in the restrainer one at a time and the box firmly secured. The zero blood sample is obtained by nicking a small (1 mm or less) piece off the tip of the tail. The tail is then stroked with a firm but gentle motion from the top to the bottom to milk out the blood. Approximately 1 mL of blood is collected into a heparirnized vacutainer tube.
Compounds are prepared as required, in a standard dosing volume of 10 mL/kg, and administered orally by passing a 16 gauge, 3" gavaging needle into the stomach. Subsequent bleeds are taken in the same manner as the zero bleed except that there is no need to nick the tail again. The tail is cleaned with a piece of gauze and milked/stroked as described above into the appropriately labelled tubes.
Immediately after sampling, blood is centrifuged, separated, put into clearly marked vials and stored in a freezer until analysed. Typical time points for determination of rat blood levels after PO dosing are 0, 15 min, 30 min, 1 h, 2 h, 4 h, and 6 h.
After the 4 hr time point bleed, food is provided to the rats ad libitum. Water is provided at all times during the study.
The following vehicles may be used in PO rat blood level determinations:
Compounds for PO blood levels can be in suspension form. For better dissolution, the solution can be placed in a sonicator for approximately 5 minutes.
For analysis, aliquots are diluted with an equal volume of acetonitrile and centrifuged to remove protein precipitate. The supernatant is injected directly onto a C-18 HPLC column with UV detection. Quantitation is done relative to a clean blood sample spiked with a known quantity of drug.
Intravenous Pharmacokinetics in Rats--Procedure
The animals are housed, fed and cared for according to the Guidelines of the Canadian Council on Animal Care. Male Sprague Dawley (325-375 g) rats are placed in plastic shoe box cages with a suspended floor, cage top, water bottle and food. The compound is prepared as required, in a standard dosing volume of 1 mL/kg.
Rats are bled for the zero blood sample and dosed under CO2 sedation. The rats, one at a time, are placed in a primed CO2 chamber and taken out as soon as they have lost their righting reflex. The rat is then placed on a restraining board, a nose cone with CO2 delivery is placed over the muzzle and the rat restrained to the board with elastics. With the use of forceps and scissors, the jugular vein is exposed and the zero sample taken, followed by a measured dose of compound which is injected into the jugular vein. Light digital pressure is applied to the injection site, and the nose cone is removed. The time is noted. This constitutes the zero time point.
The 5 min bleed is taken by nicking a piece (1-2 mm) off the tip of the tail. The tail is then stroked with a firm but gentle motion from the top of the tail to the bottom to milk the blood out of the tail. Approximately 1 mL of blood is collected into a heparinized collection vial. Subsequent bleeds are taken in the same fashion, except that there is no need to nick the tail again. The tail is cleaned with a piece of gauze and bled, as described above, into the appropriate labelled tubes. Typical time points for determination of rat blood levels after I.V. dosing are either a) 0, 5 min, 15 min, 30 min, 1 h, 2 h, 6 h, or b) 0, 5 min, 30 min, 1 h, 2 h, 4 h, 6 h.
The following vehicles may be used in IV rat blood level determinations:
DMSO (dimethylsulfoxide): Restricted to a dose volume of 0.1 mL per animal
PEG 200: Not more than 60% mixed with 40% sterile water --1 mL/kg
With Dextrose, either sodium bicarbonate or sodium carbonate can be added if the solution is cloudy. […]

Series [2] deals with T1, COX-1 (Homo sapiens, UniProt P23219). In words: Assay of COX-1 activity from U937 cell microsomes. The class given is biochemical. On the set-up: Assay of COX-1 Activity from U937 cell microsomes; endogenous in cells; host or cells: U937 cells, 100,000 x g microsomal fraction. The following applies: read-out: U937 Cox-1 (IC50, inhibition of PGE2 production). The procedure:
Assay of COX-1 Activity from U937 cell microsomes
U 937 cells are pelleted by centrifugation at 500 x g for 5 min and washed once with phosphate-buffered saline and repelleted. Cells are resuspended in homogenization buffer consisting of 0.1 M Tris-HCl, pH 7.4, 10 mM EDTA, 2 μg/ml leupeptin, 2 μg/ml soybean trypsin inhibitor, 2 μg/ml aprotinin and 1 mM phenyl methyl sulfonyl fluoride. The cell suspension is sonicated 4 times for 10 sec and is centrifuged at 10,000 x g for 10 min at 4° C. The supernatant is centrifuged at 100,000 x g for 1 hr at 4° C. The 100,000 x g microsomal pellet is resuspended in 0.1 M Tris-HCl, pH 7.4, 10 mM EDTA to approximately 7 mg protein/mil and stored at -80° C.
Microsomal preparations are thawed immediately prior to use, subjected to a brief sonication, and then diluted to a protein concentration of 125 μg/ml in 0.1 M Tris-HCl buffer, pH 7.4 containing 10 mM EDTA, 0.5 mM phenol, 1 mM reduced glutathione and 1 μM hematin. Assays are performed in duplicate in a final volume of 250 μl. Initially, 5 μl of DMSO vehicle or drug in DMSO are added to 20 μl of 0.1 M Tris-HCl buffer, pH 7.4 containing 10 mM EDTA in wells of a 96-deepwell polypropylene titre plate. 200 μl of the microsomal preparation are then added and pre-incubated for 15 min at room temperature before addition of 25 μl of […] arachidonic acid in […] Tris-HCl and 10 mM EDTA, pH 7.4. Samples are incubated for 40 min at room temperature and the reaction is stopped by the addition of 25 μl of 1 N HCl. Samples are neutralized with 25 μl of 1 N NaOH prior to quantitation of PGE2 content by radioimmunoassay (Dupont-NEN or Amersham assay kits). Cyclooxygenase activity is defined as the difference between PGE2 levels in samples incubated in the presence of arachidonic acid and ethanol vehicle.
(§1) Compounds of the present invention are inhibitors of COX-2 and are thereby useful in the treatment of COX-2 mediated diseases as enumerated above. The activities of the compounds against cyclooxygenase may be seen in the representative results shown below. In the assay, inhibition is determined by measuring the amount of prostaglandin E2 (PGE2) synthesized in the presence of arachidonic acid, COX-1 or COX-2 and a putative inhibitor. The IC50 values represent the concentration of putative inhibitor required to lower PGE2 synthesis to 50% of that obtained as compared to the uninhibited control.

In series [3] the target is T1, COX-1. In words: Human whole blood assay, COX-1 (clotting-induced TxB2 production). The class given is cell-based. The following applies: clotting-induced TxB2, 1 hour at 37° C, read-out: HWB Cox-1 (IC50). On the set-up: platelets in whole blood contain a large amount of the COX-1 enzyme; from tissue; host or cells: fresh human whole blood without anticoagulant, platelets. As for the experimental part:
(§2) Human whole blood provides a protein and cell-rich milieu appropriate for the study of biochemical efficacy of anti-inflammatory compounds such as selective COX-2 inhibitors. […] This is consistent with the observation that COX-2 inhibitors have no effect on PGE2 production in normal blood. These inhibitors are active only after incubation of human whole blood with LPS, which induces COX-2. This assay can be used to evaluate the inhibitory effect of selective COX-2 inhibitors on PGE2 production. As well, platelets in whole blood contain a large amount of the COX-1 enzyme. Immediately following blood clotting, platelets are activated through a thrombin-mediated mechanism. This reaction results in the production of thromboxane B2 (TXB2) via activation of COX-1. Thus, the effect of test compounds on TxB2 levels following blood clotting can be examined and used as an index for COX-1 activity. Therefore, the degree of selectivity by the test compound can be determined by measuring the levels of PGE2 after LPS induction (COX-2) and TxB2 following blood clotting (COX-1) in the same assay.
B. COX-1 (Clotting-induced TxB2 production)
Fresh blood is collected into vacutainers containing no anticoagulants. […] The tubes are vortexed and incubated at 37° C. for 1 hour to allow blood to clot. At the end of incubation, serum is obtained by centrifugation (12,000 x g for 5 min.). A 100 μL aliquot of serum is mixed with 400 μL of methanol for protein precipitation. The supernatant is obtained and is assayed for TxB2 using a enzyme immunoassay kit (Cayman, #519031) according to the manufacturer's instruction. […]

Series [4] deals with T2, COX-2 (Homo sapiens, UniProt P35354).
T2 sequence (P35354 18-604): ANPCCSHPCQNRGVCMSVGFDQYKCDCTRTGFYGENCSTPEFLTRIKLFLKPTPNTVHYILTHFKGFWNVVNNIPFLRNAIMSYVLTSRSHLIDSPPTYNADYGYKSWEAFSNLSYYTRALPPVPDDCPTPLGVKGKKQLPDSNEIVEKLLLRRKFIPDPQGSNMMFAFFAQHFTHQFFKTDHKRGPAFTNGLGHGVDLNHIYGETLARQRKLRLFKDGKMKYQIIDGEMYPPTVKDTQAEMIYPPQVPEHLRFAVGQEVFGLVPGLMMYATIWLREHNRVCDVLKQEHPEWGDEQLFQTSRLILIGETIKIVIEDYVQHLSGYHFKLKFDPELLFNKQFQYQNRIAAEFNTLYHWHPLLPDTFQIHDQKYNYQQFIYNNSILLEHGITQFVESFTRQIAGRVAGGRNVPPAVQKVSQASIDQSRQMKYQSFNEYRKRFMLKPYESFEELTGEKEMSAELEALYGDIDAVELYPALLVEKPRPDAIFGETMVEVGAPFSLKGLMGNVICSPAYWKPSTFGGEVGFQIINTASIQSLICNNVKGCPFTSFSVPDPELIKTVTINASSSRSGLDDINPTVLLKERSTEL
Description: Human whole blood assay, COX-2 (LPS-induced PGE2 production). Particulars: 24 hours at 37° C, read-out: HWB Cox-2 (IC50, inhibition of PGE2 production). On the set-up: incubation of human whole blood with LPS, which induces COX-2; from tissue; host or cells: fresh heparinized human whole blood from male and female volunteers, LPS-stimulated. The class given is cell-based. The procedure: as §2
A. COX-2 (LPS-induced PGE9 production)
Fresh blood is collected in heparinized tubes by venipuncture from both male and female volunteers. The subjects have no apparent inflammatory conditions and have not taken any NSAIDs for at least 7 days prior to blood collection. Plasma is immediately obtained from a 2 mL blood aliquot to use as blank (basal levels of PGE2). The remaining blood is incubated with LPS (100 μg/ml final concentration, Sigma Chem, #L-2630 from E. coli; diluted in 0.1% BSA (Phosphate buffered saline) for 5 minutes at room temperature. Five hundred μL aliquots of blood are incubated with either 2 μL of vehicle (DMSO) or 2 μL of a test compound at final concentrations varying from 10 nM to 30 μM for 24 hours at 37° C. At the end of the incubation, the blood is centrifuged at 12,000 x g for 5 minutes to obtain plasma. A 100 μL aliquot of plasma is mixed with 400 μL of methanol for protein precipitation. The supernatant is obtained and is assayed for PGE2 using a radioimmunoassay kit (Amersham, RPA#530) after conversion of PGE2 to its methyl oximate derivative according to the manufacturer's procedure.
as §1

T1 sequence (P23219 24-599): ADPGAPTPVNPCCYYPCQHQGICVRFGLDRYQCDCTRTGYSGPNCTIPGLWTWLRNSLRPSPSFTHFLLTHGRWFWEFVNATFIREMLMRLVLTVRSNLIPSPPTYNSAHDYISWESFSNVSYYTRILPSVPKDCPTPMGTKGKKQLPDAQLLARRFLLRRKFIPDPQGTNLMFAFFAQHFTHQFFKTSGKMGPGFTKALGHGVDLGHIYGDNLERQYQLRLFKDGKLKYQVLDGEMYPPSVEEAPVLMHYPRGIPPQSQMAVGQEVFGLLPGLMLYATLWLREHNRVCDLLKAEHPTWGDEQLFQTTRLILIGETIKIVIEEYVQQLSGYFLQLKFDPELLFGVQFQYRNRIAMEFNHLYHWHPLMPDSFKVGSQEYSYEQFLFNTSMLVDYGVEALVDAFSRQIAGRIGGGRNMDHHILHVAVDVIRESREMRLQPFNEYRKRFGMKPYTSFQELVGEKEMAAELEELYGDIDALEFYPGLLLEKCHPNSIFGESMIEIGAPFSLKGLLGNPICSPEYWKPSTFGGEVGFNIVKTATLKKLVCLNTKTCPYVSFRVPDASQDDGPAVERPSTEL

For `CC1(C)OC(=O)C(c2ccc(F)c(F)c2)=C1c1ccc(S(C)(=O)=O)cc1` [Compound T3-2, 3-(3,4-difluorophenyl)-5,5-dimethyl-4-[4-(methylsulfonyl)phenyl]-2,5-dihydro-2-furanone, reference compound], in series [1], the half-life is over 24 h. Besides, the results for the IC50 in series [2] and in series [3] were 10 to 30 µM and over 30 µM, respectively.

As for `CCC1(C)OC(=O)C(c2ccccc2)=C1c1ccc(S(C)(=O)=O)cc1` (stereo not drawn) [a, 5-ethyl-5-methyl-4-[4-(methylsulfonyl)phenyl]-3-phenyl-2,5-dihydro-2-furanone], the values for the IC50 in series [2], in series [3] and in series [4] were 3 to 10 µM, over 30 µM and under 0.37 µM, respectively.

In the case of `CCC1(C)OC(=O)C(c2cccc(F)c2)=C1c1ccc(S(C)(=O)=O)cc1` (stereo not drawn) [f, 5-ethyl-3-(3-fluorophenyl)-5-methyl-4-[4-(methylsulfonyl)phenyl]-2,5-dihydro-2-furanone], the IC50 was over 10 µM in series [2], over 30 µM in series [3] and 0.48 µM in series [4].

In general, IC50 refers to the concentration at which inhibition is half-maximal.
